The text below walks through data of patent US20230310427A1, “NEW THERAPEUTIC USE OF RILPIVIRINE” (UNIVERSITY OF SOUTH AUSTRALIA, priority 2020, published 2023).

For assay [1], the system named is cleavage of PARP in p53 WT A2780 cells. The experiment in a line: Western blot, PARP cleavage. To be noted: 48 hour treatments, various concentrations. Type of assay: cell-based. On the procedure: For Western blotting, cells (8×10^5) were seeded in a culture dish with 10 mL medium and incubated overnight at 37° C., 5% CO2. Untreated and compound-treated cells were lysed using phosphate lysis buffer and protease inhibitors. The protein concentration of each sample was determined by Bio-Rad DC™ protein assay (Bio-Rad Laboratories, Hercules, CA, United States of America). The protein was deactivated at 95° C. for 5 min and then resolved on 4-20% polyacrylamide gels by electrophoresis. Proteins were transferred to polyvinylidene difluoride (PDVF) membrane and blocked for 1 h with 10% skimmed milk (SM) in Tris-buffered saline and Tween (TBST). After adding primary antibody, the membranes were incubated overnight on a rocker in a 4° C. cold room. The following day, membranes were washed in TBST (4×20 min), incubated for at least 1 h at room temperature with the appropriate horseradish peroxidase conjugated secondary antibody. Following this, the blots were washed with TBST (4×20 min) again. The blots were then treated with Western blotting detection reagent and the band intensity was determined using a Bio-Rad ChemiDoc™ MP imaging system (Bio-Rad Laboratories). All the antibodies used for protein detection were from Cell Signaling Technology (Danvers, MA, United States of America). […]

The target of assay [2] is T1, Aurora A kinase (Homo sapiens, UniProt O14965).
T1 construct: purchased Promega (ADP-Glo kits) or Reaction Biology Corporation / Eurofins discovery services (external)
T1 sequence (O14965 1-403): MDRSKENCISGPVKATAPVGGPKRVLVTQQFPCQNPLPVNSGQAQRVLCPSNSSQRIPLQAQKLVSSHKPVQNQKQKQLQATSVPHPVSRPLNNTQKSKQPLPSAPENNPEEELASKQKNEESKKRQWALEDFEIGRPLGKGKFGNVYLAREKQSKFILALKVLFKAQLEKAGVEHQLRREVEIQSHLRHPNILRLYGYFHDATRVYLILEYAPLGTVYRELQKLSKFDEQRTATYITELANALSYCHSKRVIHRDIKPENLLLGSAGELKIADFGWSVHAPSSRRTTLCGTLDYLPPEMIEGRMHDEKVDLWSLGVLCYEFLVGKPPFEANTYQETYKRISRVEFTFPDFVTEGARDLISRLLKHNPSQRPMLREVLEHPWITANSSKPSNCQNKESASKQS
The experiment in a line: Kinase assay. Type of assay: biochemical. On the procedure: (§1) The ability of compounds to inhibit kinases was measured using ADP-Glo^Tm assay kits (Promega, Madison, WI, United States of America) or externally using radioisotope based assays (Reaction Biology Corporation, Malvern, PA, United States of America and Eurofins discovery services, France). The ADP-Glo assay was performed as reported previously (Basnet SK et al., Mol Pharmacol 88(5):935-948, 2015).The assay plate was read for luminescence using Envision multi-label plate reader (PerkinElmer, Waltham, MA, United States of America). Half-maximal inhibition (IC50) values were determined from a plot of percent residual activity versus concentration of test compounds using GraphPad Prism software. Ki values were calculated from IC50 values using the Cheng-Prusoff equation: Ki= IC50/ [1 + ([ATP]/Km ATP)], where [ATP] is the ATP concentration used for the IC50 determination and Km ATP for each kinase is determined from an individual experiment.

Assay [3] addresses T2, YES kinase (Homo sapiens, UniProt P07947).
T2 construct: purchased Promega (ADP-Glo kits) or Reaction Biology Corporation / Eurofins discovery services (external)
In words: Kinase assay. The assay is classed as biochemical. To be noted: expanded panel, read-out: percent inhibition. The procedure:
as §1

The target in assay [4] is T3, PIM1 (Homo sapiens, UniProt P11309).
T3 construct: purchased Promega (ADP-Glo kits) or Reaction Biology Corporation / Eurofins discovery services (external)
In words: Kinase assay. Type of assay: biochemical. On the procedure: as §1

Assay [5] concerns the target T4, LYN (Homo sapiens, UniProt P07948).
T4 construct: purchased Promega (ADP-Glo kits) or Reaction Biology Corporation / Eurofins discovery services (external)
The experiment in a line: Kinase assay. Type of assay: biochemical. As to conditions: expanded panel, read-out: percent inhibition. On the procedure: as §1

Assay [6] deals with T5, JAK1 (Homo sapiens, UniProt P23458).
T5 construct: purchased Promega (ADP-Glo kits) or Reaction Biology Corporation / Eurofins discovery services (external)
In words: Kinase assay. The assay is classed as biochemical. To be noted: kinase inhibition profiling (FIG. 2), concentration of 10 µM. The procedure:
as §1

Assay [7] has as its target T6, FLT3 (Homo sapiens, UniProt P36888).
T6 construct: purchased Promega (ADP-Glo kits) or Reaction Biology Corporation / Eurofins discovery services (external)
In words: Kinase assay. The assay is classed as biochemical. To be noted: kinase inhibition profiling (FIG. 2), concentration of 10 µM. The procedure:
as §1

Assay [8] has as its target T7, Aurora B kinase (Homo sapiens, UniProt Q96GD4).
T7 construct: purchased Promega (ADP-Glo kits) or Reaction Biology Corporation / Eurofins discovery services (external)
In words: Kinase assay. Type of assay: biochemical. As to conditions: kinase inhibition profiling (FIG. 2), concentration of 10 µM. The procedure: as §1

Assay [9] concerns A2780 cells. The experiment in a line: Colony formation assay. Type of assay: cell-based. As to conditions: data not shown. On the procedure:
A total of 1000-1500 cells/well were plated on a 6 well plate and allowed to adhere for 6-8 hours. Appropriate concentrations of Rilpivirine were added and then the cells were put back into the incubator for 7-14 days. The medium was changed every 3 days. After the incubation, the cells were washed with 1 ml PBS carefully. Cells were then fixed with 1 % Formaldehyde and stained with crystal violet. Colonies were counted with >50 cells by eye and images were taken using a camera fitted with microscope.

The test system of assay [10] is Miapaca-2 (pancreatic) cancer cell lines. In words: Cell cycle analysis (flow cytometry). The assay is classed as cell-based. To be noted: 48 hours; data not shown. On the procedure:
(§2) The effect of Rilpivirine on cell cycle distribution in different cancer cell lines was evaluated by flow cytometric analysis. Briefly, cells were seeded in 6-well plates at a density of 6 × 10^4 cells/well. All plates were incubated overnight at 37° C. in a 5% CO2 incubator. Following the incubation, the test compounds (Rilpivirine (Ril) and comparators, Alisertib (Ali; a known Aurora A inhibitor) and Etravirine (Etra; 4-[[6-amino-5-bromo-2-[(4-cyanophenyl)amino]-4-pyrimidinyl]oxy]-3,5-dimethylbenzonitrile - a structurally similar NNRTI drug compound sold under the brand name Intelence® (Janssen Therapeutics)) were added to individual wells and the plates were incubated at same condition for 24 h, 48 h or 72 h. Subsequently, the medium was removed from the wells and transferred into fluorescence-activated cell sorting (FACS) tubes. The adherent cells remaining were trypsinised, re-suspended in media and transferred into the FACS tubes. Cells were centrifuged, fixed with cold 70% ethanol for 15 min and pelleted. The pelleted cells were then re-suspended in 200 µL propidium iodide (PI) solution (50 µg/mL propidium iodide, 0.1 mg/mL ribonuclease A, 0.1% sodium citrate, 0.1% triton X-100) and incubated in the dark for 1.5 h at room temperature. Following the incubation, 200 µL PBS was added. Samples were assessed using a flow cytometer (Cytoflex; Beckman Coulter Inc, Brea, CA, United States of America) and data were analysed using the Cytexpert software.

For assay [11], the system named is OVCAR-5 cells. The experiment in a line: Cell cycle analysis (flow cytometry). Type of assay: cell-based. As to conditions: 72 hour, 5 µM, 10 µM and 20 µM; p53 WT. The procedure: as §2
Assay [12] concerns SKOV-3 cells. The experiment in a line: Cell cycle analysis (flow cytometry). Type of assay: cell-based. As to conditions: 72 hours, 5 µM, 10 µM and 20 µM; p53 mutant; data not shown. On the procedure:
as §2

Setting [13] is: 1 µM, expanded panel, read-out: percent inhibition.
Setting [14] is: kinase inhibition profiling (FIG. 2), concentration of 10 µM.

T3 sequence (P11309 whole entry): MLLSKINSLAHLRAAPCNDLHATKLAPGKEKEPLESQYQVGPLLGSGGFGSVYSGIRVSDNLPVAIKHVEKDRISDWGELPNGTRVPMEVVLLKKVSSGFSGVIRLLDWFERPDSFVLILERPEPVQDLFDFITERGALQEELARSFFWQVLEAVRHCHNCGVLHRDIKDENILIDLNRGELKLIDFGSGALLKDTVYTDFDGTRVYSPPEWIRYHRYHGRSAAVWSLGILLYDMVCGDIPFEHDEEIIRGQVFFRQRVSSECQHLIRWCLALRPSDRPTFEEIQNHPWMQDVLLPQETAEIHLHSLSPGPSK
T2 sequence (P07947 whole entry): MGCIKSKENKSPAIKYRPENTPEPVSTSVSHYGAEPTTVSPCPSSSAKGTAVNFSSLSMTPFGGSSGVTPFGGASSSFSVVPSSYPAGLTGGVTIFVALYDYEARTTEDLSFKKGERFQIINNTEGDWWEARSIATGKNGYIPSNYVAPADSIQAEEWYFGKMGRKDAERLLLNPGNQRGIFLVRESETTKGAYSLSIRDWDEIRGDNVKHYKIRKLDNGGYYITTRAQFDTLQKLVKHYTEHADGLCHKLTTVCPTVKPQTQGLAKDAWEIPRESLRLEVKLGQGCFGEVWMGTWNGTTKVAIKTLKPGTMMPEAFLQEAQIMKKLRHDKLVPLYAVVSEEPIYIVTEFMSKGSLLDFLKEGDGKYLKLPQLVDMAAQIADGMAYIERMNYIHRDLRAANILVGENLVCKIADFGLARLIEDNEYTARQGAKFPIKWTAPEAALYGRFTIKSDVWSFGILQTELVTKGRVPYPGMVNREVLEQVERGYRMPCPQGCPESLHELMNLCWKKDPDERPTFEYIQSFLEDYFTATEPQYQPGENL
T6 sequence (P36888 27-993): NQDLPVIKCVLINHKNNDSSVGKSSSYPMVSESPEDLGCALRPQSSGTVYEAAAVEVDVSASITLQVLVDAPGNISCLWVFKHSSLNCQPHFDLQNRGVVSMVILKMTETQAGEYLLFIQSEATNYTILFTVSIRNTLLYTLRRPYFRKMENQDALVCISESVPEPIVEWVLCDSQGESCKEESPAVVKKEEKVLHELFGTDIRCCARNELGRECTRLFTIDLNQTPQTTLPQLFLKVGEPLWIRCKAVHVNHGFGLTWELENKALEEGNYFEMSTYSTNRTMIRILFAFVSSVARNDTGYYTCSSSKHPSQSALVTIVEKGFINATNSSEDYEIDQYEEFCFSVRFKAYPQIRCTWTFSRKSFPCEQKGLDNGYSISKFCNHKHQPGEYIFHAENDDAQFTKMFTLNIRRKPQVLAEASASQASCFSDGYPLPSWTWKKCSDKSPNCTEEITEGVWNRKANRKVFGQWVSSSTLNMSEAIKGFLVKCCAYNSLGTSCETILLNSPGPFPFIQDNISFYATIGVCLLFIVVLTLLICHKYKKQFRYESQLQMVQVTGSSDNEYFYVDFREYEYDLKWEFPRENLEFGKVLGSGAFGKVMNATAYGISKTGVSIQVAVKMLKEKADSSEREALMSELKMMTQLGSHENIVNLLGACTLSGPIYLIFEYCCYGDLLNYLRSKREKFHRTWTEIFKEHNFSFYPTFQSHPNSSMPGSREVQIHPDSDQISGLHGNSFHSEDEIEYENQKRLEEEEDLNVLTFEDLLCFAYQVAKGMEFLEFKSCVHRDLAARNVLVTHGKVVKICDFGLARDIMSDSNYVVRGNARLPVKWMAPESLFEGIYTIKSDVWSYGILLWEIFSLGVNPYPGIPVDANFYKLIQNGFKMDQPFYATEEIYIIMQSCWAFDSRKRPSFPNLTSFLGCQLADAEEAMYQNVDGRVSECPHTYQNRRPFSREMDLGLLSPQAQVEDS
T4 sequence (P07948 whole entry): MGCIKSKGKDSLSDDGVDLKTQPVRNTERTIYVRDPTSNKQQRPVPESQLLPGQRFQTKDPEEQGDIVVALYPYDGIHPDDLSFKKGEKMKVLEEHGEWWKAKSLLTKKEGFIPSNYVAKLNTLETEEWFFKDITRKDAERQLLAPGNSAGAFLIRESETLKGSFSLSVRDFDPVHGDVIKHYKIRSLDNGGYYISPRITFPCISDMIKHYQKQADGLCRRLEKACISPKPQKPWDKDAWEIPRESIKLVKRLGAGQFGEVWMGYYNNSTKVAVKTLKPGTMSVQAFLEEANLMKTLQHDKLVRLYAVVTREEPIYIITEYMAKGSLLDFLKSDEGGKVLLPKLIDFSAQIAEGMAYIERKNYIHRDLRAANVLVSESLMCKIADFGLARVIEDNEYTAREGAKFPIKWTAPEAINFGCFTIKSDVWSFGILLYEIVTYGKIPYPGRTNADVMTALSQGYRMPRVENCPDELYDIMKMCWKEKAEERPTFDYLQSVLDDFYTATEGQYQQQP
T7 sequence (Q96GD4 whole entry): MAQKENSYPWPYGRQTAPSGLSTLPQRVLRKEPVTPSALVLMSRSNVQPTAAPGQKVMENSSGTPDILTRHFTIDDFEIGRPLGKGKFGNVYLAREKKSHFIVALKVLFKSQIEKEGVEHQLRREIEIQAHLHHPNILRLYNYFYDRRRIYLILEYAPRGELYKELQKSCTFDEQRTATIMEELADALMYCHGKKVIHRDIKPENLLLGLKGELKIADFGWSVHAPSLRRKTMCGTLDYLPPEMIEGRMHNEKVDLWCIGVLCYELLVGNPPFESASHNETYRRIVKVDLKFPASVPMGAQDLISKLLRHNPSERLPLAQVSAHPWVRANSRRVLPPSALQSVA
T5 sequence (P23458 whole entry): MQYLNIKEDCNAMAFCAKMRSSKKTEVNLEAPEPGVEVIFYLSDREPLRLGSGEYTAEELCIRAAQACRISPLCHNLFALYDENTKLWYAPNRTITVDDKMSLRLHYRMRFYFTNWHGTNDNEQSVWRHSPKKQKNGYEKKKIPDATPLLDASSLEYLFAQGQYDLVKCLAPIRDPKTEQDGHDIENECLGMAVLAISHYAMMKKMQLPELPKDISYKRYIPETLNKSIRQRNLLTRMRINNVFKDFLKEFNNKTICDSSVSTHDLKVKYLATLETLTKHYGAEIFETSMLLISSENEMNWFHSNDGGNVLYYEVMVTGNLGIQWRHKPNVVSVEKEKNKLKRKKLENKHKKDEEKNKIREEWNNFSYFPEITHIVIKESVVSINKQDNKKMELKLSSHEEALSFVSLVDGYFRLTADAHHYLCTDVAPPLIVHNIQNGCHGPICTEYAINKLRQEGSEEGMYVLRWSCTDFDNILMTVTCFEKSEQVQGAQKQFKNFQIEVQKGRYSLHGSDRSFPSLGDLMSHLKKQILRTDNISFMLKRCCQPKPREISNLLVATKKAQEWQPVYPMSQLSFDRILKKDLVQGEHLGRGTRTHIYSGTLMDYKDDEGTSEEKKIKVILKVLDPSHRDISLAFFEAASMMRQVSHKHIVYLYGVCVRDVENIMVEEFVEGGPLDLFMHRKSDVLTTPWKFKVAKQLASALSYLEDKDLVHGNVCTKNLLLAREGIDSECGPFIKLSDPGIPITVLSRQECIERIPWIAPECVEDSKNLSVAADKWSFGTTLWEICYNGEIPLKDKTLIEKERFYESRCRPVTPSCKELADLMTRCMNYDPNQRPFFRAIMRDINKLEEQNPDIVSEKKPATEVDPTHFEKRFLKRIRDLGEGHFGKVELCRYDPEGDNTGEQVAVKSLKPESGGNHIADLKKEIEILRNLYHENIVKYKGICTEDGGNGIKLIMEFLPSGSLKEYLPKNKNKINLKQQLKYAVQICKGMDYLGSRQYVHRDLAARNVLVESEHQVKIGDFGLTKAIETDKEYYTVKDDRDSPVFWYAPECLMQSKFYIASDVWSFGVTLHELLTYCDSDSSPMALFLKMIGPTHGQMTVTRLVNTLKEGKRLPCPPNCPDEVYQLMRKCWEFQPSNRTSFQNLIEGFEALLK

In the case of `Cc1cc(/C=C/C#N)cc(C)c1Nc1ccnc(Nc2ccc(C#N)cc2)n1` [Rilpivirine, 4-[[4-[4-[(E)-2-cyanoethenyl]-2,6-dimethylanilino]pyrimidin-2-yl]amino]benzonitrile], the “cleavage of PARP” value in [1] is given as “apoptosis is associated with cleavage of PARP”. The inhibition at 1 µM in [2] (setting [13]) is 86%; in assay [3], 83%; in assay [4] (setting [13]), 78%; in assay [5] it was 77%. The Ki in assay [2] (cell free kinase assay) came to 130 nM. For the same compound, the “inhibitory activity against Aurora A” value in [2] (setting [14]) is “potently inhibits”. Besides, the “inhibitory activity against PIM1” value in [4] (setting [14]) is reported as “some inhibitory activity”. In addition, the “inhibitory activity against JAK1” value in assay [6] was “some inhibitory activity”. Also, the “inhibitory activity against FLT3” value in [7] was “some inhibitory activity”. Moreover, the “inhibitory activity against Aurora B” value in assay [8] is reported as “some inhibitory activity”. Moreover, in assay [9], the clonogenic survival result is “clear inhibition of clonogenic survival”. In addition, the cell cycle arrest result in assay [10] is “G2/M arrest increased with increasing concentrations of the drug”; in assay [11], “arrests the cells in the G1 phase or accumulated in Sub-G1 phase at higher concentrations”; in assay [12], “caused G2/M arrest in a dose-dependent manner”.
